Source: US9717742B2, “Oxysterol analogue OXY133 induces osteogenesis and hedgehog signaling and inhibits adipogenesis” (The Regents of the University of California, priority 2012, dated 2017)

Experiments:
[1] = test system: M2-10B4 (M2) bone marrow stromal cells; assay: Alkaline phosphatase (ALP) activity assay on whole cell extracts, M2 cells; assay type: cell-based, mouse; details: data not shown
[2] = test system: Lewis rats; details: prior studies (15), 4 weeks; cited from earlier work
[3] = test system: Lewis rats; assay: Posterolateral intertransverse process spinal fusion at L4-L5 in rats; assay type: in vivo, rat; details: for Fusion Rates (%) Manual Palpation / Fusion Rates (%) Micro-CT / Fusion Rates (%) X-ray: at sacrifice (8 weeks); for bilateral fusion on radiographs: four weeks; for trabecular thickness: micro-CT, 8 weeks
Experimental: Thirty-eight 8-week-old male Lewis rats were purchased from Charles River Laboratories (Wilmington, Mass.) and were maintained and housed at the UCLA vivarium in accordance with regulations set forth by the UCLA Office of Protection of Research Subjects. The study was performed under a protocol approved by the UCLA Animal Research Committee (ARC).
Animals were pre-medicated with sustained release buprenorphine thirty minutes prior to surgery and anesthetized with 2% isoflurane administered in oxygen (1 L/min). The surgical site was shaved and disinfected with Betadine and 70% ethanol. Posterolateral intertransverse process spinal fusion at L4-L5 was performed as in prior studies (21, 22). The L6 vertebral body was identified using the iliac crest as a landmark. A 4-cm longitudinal midline incision was made through the skin and subcutaneous tissue over L4-L5 down to the lumbodorsal fascia. A 2-cm longitudinal paramedial incision was then made in the paraspinal muscles bilaterally to expose the transverse processes of L4-L5, which were decorticated with a high-speed burr. The surgical site was then irrigated with sterile saline, and 5 mm×5 mm×13 mm pieces of collagen sponge (Helistat, Integra Life Sciences) containing dimethyl sulfoxide (DMSO) control, rhBMP-2, or Oxy133 were placed bilaterally, with each implant spanning the transverse processes. The implants were then covered with the overlying paraspinal muscles and the lumbodorsal fascia and skin were closed with 4-0 Prolene sutures (Ethicon, Inc., Somerville, N.J.). Animals were allowed to ambulate, eat, and drink ad libitum immediately after surgery.
Posteroanterior radiographs of the lumbar spine were taken on each animal at 4, 6, and 8 weeks after surgery using a Faxitron LX60 cabinet radiography system and evaluated blindly by two independent observers employing the following standardized scale: 0, no fusion; 1, unilateral fusion; and 2, complete bilateral fusion. The scores from the observers were added together and only a score of 4 was considered as complete fusion.
Eight weeks after surgery, animals were euthanized and the spines were surgically removed and evaluated by two blinded independent observers for motion between levels. Nonunion was recorded if motion was observed between the facets or transverse processes on either side. Complete fusion was recorded if no motion was observed bilaterally. Spines were scored as either fused or not fused. Unanimous agreement was required to consider complete fusion.
Each removed spine was analyzed by high resolution micro-computed tomography (micro-CT), using a SkyScan 1172 scanner (SkyScan, Belgium) with a voxel isotropic resolution of 20 μm and an X-ray energy of 55 kVp and […] to further assess the fusion rate and observe the fusion mass as we have previously reported (15). Three hundred and sixty projections were acquired over an angular range of 180° with steps of 0.5 with an exposure time of 220 msec/slice. Five frames were averaged at each rotation step to get better signal to noise ratio. A 0.5 mm aluminum filter was used to narrow down the X-ray beam frequency in order to minimize beam hardening artifact. Virtual image slices were reconstructed using the cone-beam reconstruction software version 2.6 based on the Feldkamp algorithm (SkyScan). These settings produced serial cross-sectional 1024×1024 pixel images. Sample re-orientation and 2D visualization were performed using DataViewer (SkyScan). 3D visualization was performed using Dolphin Imaging version 11 (Dolphin Imaging & Management Solutions, Chatsworth, Calif.). Fusion was defined as the bilateral presence of bridging bone between the L4 and L5 transverse processes. The reconstructed images were judged to be fused or not fused by two experienced independent observers.

[4] = test system: 8×-Gli luciferase reporter (Hedgehog signaling); assay: Gli-dependent luciferase reporter assay in C3H cells; assay type: cell-based, mouse; details: 48 hours
Experimental: After 4 days ALP activity, and after 7 days the expression of osteogenic genes ALP, BSP, and OSX was measured by quantitative real-time PCR (p<0.001 for control vs. Oxy133, and for Oxy133 vs. Oxy133+Cyc for ALP activity and for the expression of all genes shown). […] (p<0.001 for control vs. Oxy133 at 100 nM, 250 nM, and 1 μM Oxy133). (FIG. 4C) The amount of YFP-Smo captured by 20S beads or control beads was compared in samples containing either no competitor or 50 μM of a free competitor sterol (20S, Oxy133 or Oxy16). The YFP-Smo captured by the beads was measured by Western blot (top) and plotted (bottom) relative to the amount captured in the binding reaction with no competitor.
Cells at 70% confluence in 24-well plates were transiently transfected with Gli-dependent firefly luciferase and Renilla luciferase vectors as we have previously described (17, 18). […] Luciferase activity was assessed using the Dual Luciferase Reporter Assay System (Promega Corporation, Madison, Wis.) according to manufacturer's instructions after cells were treated for 48 hours.

Q: For `CC1=C2C[C@H]3[C@@H](CC=C4C[C@@H](O)CC[C@@]43C)[C@@H]2CC[C@]12O[C@@H]1C[C@H](C)CN[C@H]1[C@H]2C` [Cyclopamine], which “inhibition of Oxy133-induced ALP activity and expression of osteogenic markers” value [1] is on record?
A: Its value is “completely inhibited”.

Q: For `CC(C)CCCC(C)(O)C1CCC2C3CC(O)C4CC(O)CCC4(C)C3CCC21C` (stereo not shown) [Oxy34], which “fusion at the 4 week time point in prior studies” value [2] is on record?
A: Its value is “no fusion”.

Q: For `C=C(C)CCC[C@](C)(O)[C@H]1CC[C@H]2[C@@H]3C[C@H](O)[C@H]4C[C@@H](O)CC[C@]4(C)[C@H]3CC[C@@]21C` [Oxy49], which “fusion at the 4 week time point in prior studies” value [2] is on record?
A: The value was “no fusion”.

Q: Which “Fusion Rates (%) Manual Palpation” value ([3]; Oxy133 0.2 mg) does the source give for `CCCCCC[C@](C)(O)[C@H]1CC[C@H]2[C@@H]3C[C@H](O)[C@H]4C[C@@H](O)CC[C@]4(C)[C@H]3CC[C@@]21C` [Oxy133, (3S,5S,6S,8R,9S,10R,13S,14S,17S) 17-((S)-2-hydroxyoctan-2-yl)-10,13-dimethylhexadecahydro-1H-cyclopenta[a]phenanthrene-3,6-diol] here?
A: The value was 0%.

Q: And the “Fusion Rates (%) Micro-CT” value ([3]; Oxy133 0.2 mg)?
A: The value was 0%.

Q: And the “Fusion Rates (%) X-ray” value ([3]; Oxy133 0.2 mg)?
A: The value was 0%.

Q: What about the “bilateral fusion, micro-CT” value ([3]; Oxy133 2 mg) of the same compound?
A: The value was 4/8.

Q: What about the “bilateral fusion confirmed on manual palpation” value ([3]; Oxy133 2 mg, after sacrifice) of the same compound?
A: The value was 4/8.

Q: What about the “Fusion Rates (%) Manual Palpation” value ([3]; Oxy133 2 mg) of the same compound?
A: Its value is 50%.

Q: What about the “Fusion Rates (%) Micro-CT” value ([3]; Oxy133 2 mg) of the same compound?
A: The value was 50%.

Q: What about the “Fusion Rates (%) X-ray” value ([3]; Oxy133 2 mg) of the same compound?
A: The value was 50%.

Q: And the fusion on radiographs ([3]; Oxy133 2 mg, eight weeks)?
A: The fusion on radiographs was 4/8.

Q: And the “bilateral fusion on radiographs” value ([3]; Oxy133 2 mg)?
A: The value was 3/8.

Q: What about the “trabecular thickness” value ([3]; Oxy133 2 mg) of the same compound?
A: The value was 134.008.

Q: And the “bilateral fusion by manual assessment” value ([3]; Oxy133 20 mg, after sacrifice)?
A: Its value is 6/7.

Q: And the “Fusion Rates (%) Manual Palpation” value ([3]; Oxy133 20 mg)?
A: Its value is 86%.

Q: What about the “Fusion Rates (%) Micro-CT” value ([3]; Oxy133 20 mg) of the same compound?
A: The value was 100%.

Q: And the “Fusion Rates (%) X-ray” value ([3]; Oxy133 20 mg)?
A: Its value is 100%.

Q: What about the “bilateral fusion on radiographs” value ([3]; Oxy133 20 mg) of the same compound?
A: The value was 6/7.

Q: And the “trabecular thickness” value ([3]; Oxy133 20 mg)?
A: The value was 124.737.

Q: And the “induction of Gli-dependent reporter activity” value ([4]; 100 nM)?
A: The value was 5 fold.

Q: And the “induction of Gli-dependent reporter activity” value ([4]; at 1 Oxy133 (unit not given))?
A: Its value is 17 fold.
